Test system: HaCaT
Test: Hyaluronic acid production amount (ELISA kit) in BP-stimulated keratinocytes
Type: cell-based
Procedure: In order to confirm whether the extract of a black hoof mushroom, a shiitake mushroom, and an oyster mushroom increased the hyaluronic acid (HA) production amount in HaCaT which is a keratinocyte, measurement was performed with an ELISA kit, and the results are shown in Table 7. In Table 7, N (normal) is a BP (benzo[α]pyrene)-unstimulated group, and C (control) is a BP (benzo[α]pyrene)-stimulated group.

## O=C(O[C@@H]1Cc2c(O)cc(O)cc2O[C@@H]1c1cc(O)c(O)c(O)c1)c1cc(O)c(O)c(O)c1 [EGCG]
10 μg/mL, versus control C 99.3 ng/mL
  Increase of hyaluronic acid production versus control group (increase rate): 6.3 ng/mL
BP (benzo[α]pyrene)-stimulated, EGCG 10 μg/mL, N 198, C 99.3
  Hyaluronic acid production amount: 105.6 ng/mL
